Counter-ions that a name gives are not always drawn.
Test system: NQO1 specific enzyme activity in BEAS-2B cells
Assay: BEAS-2B NQO1 MTT assay
Format: cell-based
Conditions: BEAS-2B cells, 48 hours with compound, MTT readout; read-out: EC50 of NQO1 specific activity induction
Description: NAD(P)H:quinone oxidoreductase 1 (NQO1), also called DT diaphorase, is a homodimeric FAD-containing enzyme that catalyzes obligatory NAD(P)H-dependent two-electron reductions of quinones and protects cells against the toxic and neoplastic effects of free radicals and reactive oxygen species arising from one-electron reductions. The transcription of NQO1 is finely regulated by NRF2, and thus NQO1 activity is a good marker for NRF2 activation. On day one, frozen BEAS-2B cells (ATCC) are thawed in a water bath, counted, and re-suspended at a concentration of 250,000 cells/mL. Fifty microliters of cells are plated in 384 well black clear-bottomed plates. Plates are incubated at 37° C., 5% CO2 overnight. On day two, plates are centrifuged and 50 nL of compound or controls are added to the cells. Plates are then incubated at 37° C., 5% CO2 for 48 hours. On day four, medium is aspirated from the plate and crude cell lysates are made by adding 13 uL of 1× Cell Signaling Technologies lysis buffer with 1 Complete, Mini, EDTA-free Protease Inhibitor Tablet (Roche) for each 10 mL of lysis buffer. After lysis plates are incubated for 20 minutes at room temperature. Two microliters of lysate are removed for use in Cell Titer Glo assay (Promega) and MTT cocktail is prepared (Prochaska et. al. 1998) for measurement of NQO1 activity. Fifty microliters of MTT cocktail is added to each well, plate is centrifuged, and analyzed on an Envision plate reader (Perkin Elmer) using Absorbance 570 nm label for 30 minutes. Product formation is measured kinetically and the EC50 of NQO1 specific activity induction is calculated by plotting the change in absorbance (Delta OD/min) versus the log of compound concentration followed by 3-parameter fitting.

| Compound | EC50 |
| --- | --- |
| (S)-3-(1,4-Dimethyl-1H- benzo[d][1,2,3]triazol-5- yl)-3-(3-(((R)-2-ethyl-9- fluoro-2,3- dihydrobenzo[f][1,4]oxa- zepin-4(5H)-yl)methyl)-4- methylphenyl)-2,2- dimethylpropanoic acid, trifluoroacetic acid salt [Example 25] | < 1 nM |
| CC[C@@H]1CN(Cc2cc([C@H](CC(=O)O)c3ccc4c(nnn4CC)c3Cl)ccc2C)Cc2ccccc2O1 [Example 66, (S)-3-(4-Chloro-1-ethyl-1H-benzo[d][1,2,3]triazol-5-yl)-3-(3-(((R)-2-ethyl-2,3-dihydrobenzo[f][1,4]oxazepin-4(5H)-yl)methyl)-4-methylphenyl)propanoate, Sodium Salt] | 10 to 100 nM |
| Cc1ccc([C@@H](CC(=O)O)c2ccc3c(nnn3C)c2C)cc1CN1CCCC(n2cccn2)C1 (single isomer, unassigned; isomer 2) [Example 158] | 1000 to 10000 nM |

Same assay, conditions: Homo sapiens, BEAS-2B, 48 h, BEAS-2B cells, 48 hours with compound, MTT readout; read-out: EC50 of NQO1 specific activity induction

| Compound | EC50 |
| --- | --- |
| Cc1ccc(C(c2ccc3c(nnn3C)c2C)C(C)(C)C(=O)O)cc1CN1Cc2cccc(F)c2OC(C)(C)C1 (stereo not drawn) [Example 35, 3-(1,4-Dimethyl-1H-benzo[d][1,2,3]triazol-5-yl)-3-(3-((9-fluoro-2,2-dimethyl-2,3-dihydrobenzo[f][1,4]oxaz-epin-4(5H)-yl)methyl)-4-methylphenyl)-2,2-dimethylpropanoic acid] | 1 to 10 nM |
| CC[C@@H]1CN(Cc2cc([C@H](c3ccc4c(nnn4C)c3C)C(C)(C)C(=O)O)ccc2C)Cc2ccccc2O1 [Example 27, (R)-3-(1,4-Dimethyl-1H-benzo[d][1,2,3]triazol-5-yl)-3-(3-(((R)-2-ethyl-2,3-dihydrobenzo[f][1,4]oxa-zepin-4(5H)-yl)methyl)-4-methylphenyl)-2,2-dimethylpropanoic acid] | 100 to 1000 nM |
| CC[C@@H]1CN(Cc2cc(C(CC(=O)O)c3cc(OC)c4c(nnn4C)c3C)ccc2C)Cc2ccccc2O1 (stereo partly drawn) [Example 45, 3-(3-(((R)-2-Ethyl-2,3-dihydrobenzo[f][1,4]oxazepin-4(5H)-yl)methyl)-4-methylphenyl)-3-(7-methoxy-1,4-dimethyl-1H-benzo[d][1,2,3]triazol-5-yl)propanoic Acid, Formic Acid Salt] | 100 to 1000 nM |
| CCn1nnc2c(C)c([C@H](c3ccc(C)c(CN4Cc5cnccc5OC(C)(C)C4)c3)[C@@H](C)C(=O)O)cc(Cl)c21 [Example 209, (2R,3S)-3-(7-Chloro-1-ethyl-4-methyl-1H-benzo[d][1,2,3]triazol-5-yl)-3-(3-((2,2-dimethyl-2,3-dihydropyrido[3,4-f][1,4]oxazepin-4(5H)-yl)methyl)-4-methylphenyl)-2-methylpropanoic Acid] | 1 to 10 nM |
| CC[C@@H]1CN(Cc2cc([C@H](c3ccc4c(nnn4CC)c3C)C(C)(C)C(=O)O)ccc2C)Cc2cnccc2O1 [Example 189, (R)-3-(3-(((R)-2-ethyl-2,3-dihydropyrido[3,4-f][1,4]oxazepin-4(5H)-yl)methyl)-4-methylphenyl)-3-(1-ethyl-4-methyl-1H-benzo[d][1,2,3]triazol-5-yl)-2,2-dimethylpropanoic Acid] | 1 to 10 nM |
| Cc1ccc([C@@H](c2ccc3c(nnn3C)c2C)C(C)(C)C(=O)O)cc1CN1Cc2ncccc2OC(C)(C)C1 [Example 30, formic acid salt] | 1 to 10 nM |
| CCn1nnc2c(C)c([C@H](c3ccc(C)c(Cn4ccnc4CN4CCCCC4)c3)[C@@H](C)C(=O)O)ccc21 [Example 210, (2R,3S)-3-(1-Ethyl-4-methyl-1H-benzo[d][1,2,3]triazol-5-yl)-2-methyl-3-(4-methyl-3-((2-(piperidin-1-ylmethyl)-1H-imidazol-1-yl)methyl)phenyl)propanoic Acid] | 10 to 100 nM |
| CCCn1cc(CCC(CC(=O)O)c2ccc(C)c(CN3CCCC(n4cccn4)C3)c2)nn1 (stereo not drawn) [Example 163, 3-(3-((3-(1H-pyrazol-1-yl)piperidin-1-yl)methyl)-4-methylphenyl)-5-(1-propyl-1H-1,2,3-triazol-4-yl)pentanoic Acid, Formic Acid Salt] | 1000 to 10000 nM |
| Cc1ccc([C@H](c2ccc3c(nnn3C)c2C)[C@H](C)C(=O)O)cc1CN1Cc2cnccc2OC(C)(C)C1 [Example 198, (2S,3R)-3-(1,4-Dimethyl-1H-benzo[d][1,2,3]triazol-5-yl)-3-(3-((2,2-dimethyl-2,3-dihydropyrido[3,4-f][1,4]oxazepin-4(5H)-yl)methyl)-4-methylphenyl)-2-methylpropanoic acid, 0.1 formic acid salt] | 10 to 100 nM |
| COc1ccc2c(c1)CN(Cc1cc([C@H](CC(=O)O)c3ccc4c(nnn4C)c3C)ccc1C)CC(C)(C)O2 [Example 165, (S)-3-(1,4-Dimethyl-1H-benzo[d][1,2,3]triazol-5-yl)-3-(3-((7-methoxy-2,2-dimethyl-2,3-dihydrobenzo[f][1,4]oxazepin-4(5H)-yl)methyl)-4-methylphenyl)propanoic acid, 0.5 Formic Acid Salt] | 1 to 10 nM |
| Cc1ccc(C(c2ccc3c(nnn3C)c2C)C(C)(C)C(=O)O)cc1Cn1ccnc1CC1CCCCCC1 (stereo not drawn) [Example 131, 3-(3-((2-(Cycloheptylmethyl)-1H-imidazol-1-yl)methyl)-4-methylphenyl)-3-(1,4-dimethyl-1H-benzo[d][1,2,3]triazol-5-yl)-2,2-dimethylpropanoic acid] | 100 to 1000 nM |
| Cc1ccc2c(c1)OC(C)(C)CN(Cc1cc([C@@H](CC(=O)O)c3ccc4c(nnn4C)c3C)ccc1C)C2 [Example 179, (R)-3-(1,4-Dimethyl-1H-benzo[d][1,2,3]triazol-5-yl)-3-(4-methyl-3-((2,2,8-trimethyl-2,3-dihydrobenzo[f][1,4]oxazepin-4(5H)-yl)methyl)phenyl) propanoic acid] | 10 to 100 nM |
| Cc1ccc(C(CC(=O)O)c2ccc3c(nnn3C)c2C)cc1CN1Cc2ccc(C#N)cc2OC(C)(C)C1 (single isomer, unassigned) [Example 173] | 10 to 100 nM |
| CCC1Cc2ccc(F)cc2CN(Cc2cc(C(CC(=O)O)c3ccc4c(nnn4C)c3C)ccc2C)C1 (stereo not drawn) [compound 107, 3-(1,4-dimethyl-1H-benzo[d][1,2,3]triazol-5-yl)-3-(3-((4-ethyl-8-fluoro-4,5-dihydro-1H-benzo[c]azepin-2(3H)-yl)methyl)-4-methylphenyl)propanoic acid] | 10 to 100 nM |
| CCC1CN(Cc2cc(C(CC(=O)O)c3ccc4c(nnn4C)c3C)ccc2C)Cc2cc(F)ccc2O1 (stereo not drawn) [Example 87, 3-(1,4-Dimethyl-1H-benzo[d][1,2,3]triazol-5-yl)-3-(3-((2-ehtyl-7-fluoro-2,3-dihydrobenzo[f][1,4]oxazepin-4(5H)-yl)methyl)-4-methylphenyl)propanoic acid] | 10 to 100 nM |
| CC[C@@H]1CN(Cc2cc(C(CC(=O)O)c3ccc(F)cc3F)ccc2C)Cc2ccccc2O1 (stereo partly drawn) [Example 117, 3-(2,4-Difluorophenyl)-3-(3-(((R)-2-ethyl-2,3-dihydrobenzo[f][1,4]oxazepin-4(5H)-yl)methyl)-4-methylphenyl)propanoic Acid, Formic Acid Salt] | 1000 to 10000 nM |
| Cc1ccc(C2(C)CN(Cc3cc(C(CC(=O)O)c4ccc5c(nnn5C)c4C)ccc3C)CCO2)cc1 (stereo not drawn) [Example 18, 3-(1,4-Dimethyl-1H-benzo[d][1,2,3]triazol-5-yl)-3-(4-methyl-3-((2-methyl-2-(p-tolyl)morpholino)methyl)phenyl)propanoic Acid, Formic Acid Salt] | 1000 to 10000 nM |
| Cc1ccc([C@H](CC(=O)O)c2ccc3c(nnn3C)c2C)cc1CN1Cc2ccc(F)cc2OC(C)(C)C1 [Example 63, (S)-3-(1,4-Dimethyl-1H-benzo[d][1,2,3]triazol-5-yl)-3-(3-((8-fluoro-2,2-dimethyl-2,3-dihydrobenzo[f][1,4]oxazepin-4(5H)-yl)methyl)-4-methylphenyl)propanoic acid] | 10 to 100 nM |
| Cc1ccc(C(CC(=O)O)c2ccc3c(nnn3C)c2C)cc1CN(C)Cc1ccc(Br)cc1 (stereo not drawn) [Example 16, Ammonium 3-(3-(((4-bromobenzyl)(methyl)amino)methyl)-4-methylphenyl)-3-(1,4-dimethyl-1H-benzo[d][1,2,3]triazol-5-yl)propanoate] | 1000 to 10000 nM |
| Cc1ccc(C(CC(=O)O)c2ccc3c(nnn3C)c2C)cc1CN1CCc2cnc(C(C)C)nc2C1 (stereo not drawn) [Example 11, Ammonium 3-(1,4-dimethyl-1H-benzo[d][1,2,3]triazol-5-yl)-3-(3-((2-isopropyl-5,6-dihydropyrido[3,4-d]pyrimidin-7(8H)-yl)methyl)-4-methylphenyl)propanoate] | 1000 to 10000 nM |
| CC[C@@H]1CN(Cc2cc([C@@H](c3ccc4c(nnn4C)c3C)C(C)(C)C(=O)N3CCSC3=O)ccc2C)Cc2cnccc2O1 [Example 256, 3-((S)-3-(1,4-Dimethyl-1H-benzo[d][1,2,3]triazol-5-yl)-3-(3-(((R)-2-ethyl-2,3-dihydropyrido[3,4-f][1,4]oxazepin-4(5H)-yl)methyl)-4-methylphenyl)-2,2-dimethylpropanoyl)thiazolidin-2-one, Trifluoroacetic Acid Salt] | 10 to 100 nM |

Reference: US10604509B2, “Nrf2 regulators” (GlaxoSmithKline Intellectual Property Development Limited, priority 2015, dated 2020)
